# Laboratory results taken from patent US9428515B2, “Benzimidazole derivatives” (Boehringer Ingelheim International GmbH, priority 2014, dated 2016).
# Molecular target: T1, BRD4-BD1 (Homo sapiens, UniProt O60885)
# T1 construct: 15 nM GST-BRD4-BD1 protein (aa 44-168)
# Assay: BRD4-H4 tetraacetylated peptide inhibition AlphaScreen
# Assay type: binding
# Details: 15 nM GST-BRD4-BD1 (aa 44-168), 15 nM biotinylated Acetyl-Histone H4 (Lys5, 8, 12, 16) peptide, 30 min at RT
# Procedure: Biological Methods BRD4-H4 Tetraacetylated Peptide Inhibition AlphaScreen
# Compounds are diluted in serial dilution 1:5 in assay buffer from 10 mM stock in DMSO (100 μM start concentration) in white OptiPlate-384 (PerkinElmer). A mix consisting of 15 nM GST-BRD4-BD1 protein (aa 44-168) or 150 nM GST-BRD4-BD2 (aa 333-460) and 15 nM biotinylated Acetyl-Histone H4 (Lys5, 8, 12, 16) peptide is prepared in assay buffer (50 mM HEPES pH=7.4; 25 mM NaCl; 0.05% Tween 20; 0.1% bovine serum albumin (BSA); 10 mM dithiothreitol (DTT)). 6 μl of the mix is added to the compound dilutions. Subsequently, 6 μl of premixed AlphaLISA Glutathione Acceptor Beads and AlphaScreen Streptavidin Donor Beads from PerkinElmer (in assay buffer at a concentration of 10 μg/ml each) are added and the samples are incubated for 30 min at RT in the dark (shaking 300 rpm). Afterwards, the signal is measured in a PerkinElmer Envision HTS Multilabel Reader using the AlphaScreen protocol from PerkinElmer.
# Each plate contains negative controls where biotinylated Acetyl-Histone H4 peptide and GST-BRD4-BD1 or GST-BRD4-BD2 are left out and replaced by assay buffer. Negative control values are entered as low basis value when using the software GraphPad Prism for calculations. Furthermore, a positive control (probe molecule JQ1+ with protein/peptide mix) is pipetted. Determination of IC50 values are carried out using GraphPad Prism 3.03 software (or updates thereof).
row,SMILES,IC50 [nM]
1,COC[C@H](C)n1c(-c2cc(C)c(=O)n(C)c2)nc2cc3c(cc21)N(C(C)C)C(=O)C3(C)C [I-4],22
2,Cc1cc(-c2nc3cc4c(cc3n2[C@@H](C)c2ccccc2)N(C(C)C)C(=O)C42CC2)cn(C)c1=O [I-9],17
3,CCN1C(=O)C(C)(C)c2cc3nc(-c4cc(C)c(=O)n(C)c4)n([C@@H](C)c4ccccc4)c3cc21 [I-8],2
4,Cc1nc(-c2nc3cc4c(cc3n2[C@@H](C)c2ccccc2)N(C(C)C)C(=O)C4(C)C)cn(C)c1=O [I-5],9
5,Cc1cc(-c2nc3cc4c(cc3n2[C@@H](C)c2ccccc2)N(C)C(=O)C4(C)C)cn(C)c1=O [I-7],4
6,"COC[C@H](C)n1c(-c2cc(C)c(=O)n(C)c2)nc2cc3c(cc21)N(C)C(=O)C3(C)C [I-1, 2-(1,5-Dimethyl-6-oxo-1,6-dihydro-pyridin-3-yl)-3-((S)-2-methoxy-1-methyl-ethyl)-5,7,7-trimethyl-5,7-dihydro-3H-imidazo[4,5-f]indol-6-one]",50
7,Cc1nc(-c2nc3cc4c(cc3n2[C@@H](C)c2ccccc2)N(C)C(=O)C4(C)C)cn(C)c1=O [I-6],15
8,"Cc1cc(-c2nc3cc4c(cc3n2[C@@H](C)c2ccccc2)N(C(C)C)C(=O)C4(C)C)cn(C)c1=O [I-2, 2-(1,5-Dimethyl-6-oxo-1,6-dihydro-pyridin-3-yl)-5-isopropyl-7,7-dimethyl-3-((S)-1-phenyl-ethyl)-5,7-dihydro-3H-imidazo[4,5-f]indol-6-one]",3
9,Cc1cc(-c2nc3cc4c(cc3n2Cc2ccccn2)N(C)C(=O)C4(C)C)cn(C)c1=O [I-3],44

# The remaining lines, values ahead:
row,IC50 [nM],SMILES
1,9,CCc1nn(C)c2cc3c(cc12)nc(-c1cc(C)c(=O)n(C)c1)n3[C@@H](C)c1ccccc1 [III-3]
2,13,Cc1cc(-c2nc3cc4c(cc3n2[C@@H](C)c2ccccc2)C(=O)N(C)C4(C)C)cn(C)c1=O [II-1]
3,8,CCn1nc(C)c2cc3nc(-c4cc(C)c(=O)n(C)c4)n([C@@H](C)c4ccccc4)c3cc21 [III-2]
4,5,Cc1cc(-c2nc3cc4c(C)nn(C)c4cc3n2[C@@H](C)c2ccccc2)cn(C)c1=O [III-1]
